From patent US6338963B1, “Use of carbon monoxide dependent guanylyl cyclase modifiers to stimulate neuritogenesis” (NeoTherapeutics, Inc., priority 1994, dated 2002)

Tests used:
PC12 cells = assay: Neuritogenesis in PC12 cells; format: cell-based, rat; parameters: key to Neuritogenesis: fraction of cells bearing neurites (mean ± SEM)
Summary of the method: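 Rat pheochromocytoma PC12 cells on poly-ornithine were treated with AIT-082 alongside saturating NGF (40 ng/ml) from plating for 48 h, then formalin-fixed. Neurites ≥1 cell-body diameter with growth cone were counted; the neurite-bearing fraction is expressed relative to NGF alone (100%), mean ±SEM of 6 cultures.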

FGF-2 mRNA = assay: Northern/slot blot of neurotrophin mRNA from astrocytes: FGF-2; format: cell-based, NIH Swiss mice; parameters: key to FGF-2 mRNA: The conditions which produced a detectable amount of each of the neurotrophin mRNAs are indicated by a “+”; a “++” indicating that at least twice the detectable amount was present; Those blots which were negative are indicated by a “−”; settings: for FGF-2 mRNA: 24 hours
Description: Induction of neurotrophin mRNA was determined by northern blot analysis of astrocytes cultured with AIT-082, NGF, or both. The cells were harvested and RNA extracted at 24 hours after treatment.
More particularly, astrocytes from the cerebral cortex of NIH Swiss mice (Harlan) were isolated. Briefly, newborn pups (0-24 hours) were decapitated. Their brains were removed under aseptic conditions and were placed in modified Dulbecco's medium (DMEM) containing 20% heat-inactivated horse serum (Hyclone) (“complete medium”). The neopallium was then dissected from each cerebral hemisphere and minced into 1 mm cubes.
The astrocytes were then isolated by mechanical dissociation. The cubes were vortexed at maximum speed for one minute. The cell suspension was then passed first through 75 mm Nitex then through 10 mm Nitex. The resulting cell suspension was diluted in complete medium to a final concentration of one brain per 10 ml of complete medium. Ten milliliters of the diluted cell suspension was added to each 100 mm Falcon tissue culture plate (Fisher). After 3 days the medium was replaced with 10 ml fresh complete medium and subsequently was replaced twice weekly with DMEM containing 10% heat inactivated horse serum (“growth medium”). After two weeks in culture the astrocytes formed a confluent monolayer.
For RNA extraction, astrocytes were trypsinized. The astrocytes were then replated onto 100 mm PORN coated plates at a cell density of 10^6 cells per plate (10 ml growth medium). After 2 hrs PBS, guanosine (Guo), or GTP at 10 mM were added to the appropriate plates. Total RNA was harvested from 1.5×10^7 cells for each treatment, 4 and 24 hrs after treatment using TRIzol reagent and supplier protocol (GIBCO BRL/Life Technologies, Inc.). For slot blots, total RNA was bound to Hybond-N filters (Amersham/United States Biochemicals) as described in Transfer and Immobilization of Nucleic Acids and Proteins to S & S Solid Supports (S and S Protocols: Schleicher & Schuell, New Hampshire, USA). Northern blots were also performed using […] total RNA from each sample. These were electrophoresed in 1% agarose gels containing formaldehyde and blotted onto Hybond-N filters according to S and S protocols.
The blots were probed with ^32P-labeled cDNA (NGF, NT-3 and BDNF probes) or oligonucleotide probe (FGF-2) by hybridization in Piperazine-N,N′-bis-(2-ethanesulfonic acid) (PIPES) buffer (50 mM PIPES, pH 6.8; 50 mM NaH2PO4; 0.1 M NaCl; 5% SDS and 1 mM EDTA) overnight at 50° C. […] Various concentrations ([…] of total RNA), as determined by spectrophotometry, of each sample were blotted and probed so that quantification could be done after insuring a linear film response. Quantification was performed using MCID Image Analysis (St. Catherine's, Ontario, Canada). […]

For `Nc1nc2c(ncn2[C@@H]2O[C@H](CO)[C@@H](O)[C@H]2O)c(=O)[nH]1` [guanosine], the “neurite outgrowth in the absence of NGF” value (PC12 cells; compound alone) was “slightly increased the proportion of cells with neurites”, the “enhancement of NGF-induced neurite outgrowth” value (PC12 cells; in the presence of NGF, 48 hours) was “enhanced the neurite outgrowth induced by NGF” and the “FGF-2 mRNA in astrocytes” value (FGF-2 mRNA; guanosine, 24 hours after addition) was “increased”.

Work on `O=C(CCn1cnc2c(=O)[nH]cnc21)Nc1ccc(C(=O)O)cc1` [AIT-082, N-4-carboxyphenyl-3-(6-oxohydropurin-9-yl)propanamide] yielded a Neuritogenesis (PC12 cells; AIT-082 10 μM, L-NAME 0.1 μM) of 0.220 ± 0.010, a Neuritogenesis (PC12 cells; AIT-082 10 μM, L-NAME 1.0 μM) of 0.302 ± 0.027 and a Neuritogenesis (PC12 cells; AIT-082 10 μM, L-NAME 10.0 μM) of 0.254 ± 0.018. It also gave a Neuritogenesis (PC12 cells; AIT-082 10 μM, L-NAME None) of 0.254 ± 0.008, a Neuritogenesis (PC12 cells; AIT-082 100 μM, L-NAME 0.1 μM) of 0.257 ± 0.016 and a Neuritogenesis (PC12 cells; AIT-082 100 μM, L-NAME 1.0 μM) of 0.232 ± 0.019. For the same molecule, the Neuritogenesis (PC12 cells; AIT-082 100 μM, L-NAME 10.0 μM) was 0.289 ± 0.006, the Neuritogenesis (PC12 cells; AIT-082 100 μM, L-NAME None) was 0.309 ± 0.027 and the “Proportion of cells bearing neurites, AIT-082 + NGF” value (“Proportion … AIT-082 + NGF” for short) (PC12 cells; AIT-082 10 mM + NGF 40 ng/ml, no inhibitor) was 0.26 ± 0.01. For the same molecule, the “Proportion of cells bearing neurites, AIT-082 alone” value (PC12 cells; AIT-082 10 mM, no NGF, no inhibitor, 48 hours) was 0.2 ± 0.02, the “Proportion … AIT-082 + NGF” value (PC12 cells; AIT-082 + NGF 40 ng/ml, Methemoglobin 1 μM) was 0.17 ± 0.02 and the “Proportion … AIT-082 + NGF” value (PC12 cells; AIT-082 + NGF 40 ng/ml, Methylene Blue 5 μM) was 0.10 ± 0.01. The “Proportion … AIT-082 + NGF” value (PC12 cells; AIT-082 + NGF 40 ng/ml, Zn Protoporphyrin IX 1 μM) was 0.13 ± 0.01, the “concentration effective in stimulating neuritogenesis and enhancing NGF-stimulated neuritogenesis” value (PC12 cells; PC12 cells, 48 hours) was 1 mM and the “neuritogenesis compared with NGF” value (PC12 cells; PC12 cells, 48 hours) was “as effective as NGF”. For the same molecule, the “enhancement of the optimal effects of NGF on neuritogenesis” value (PC12 cells; with 40 ng/ml NGF, 48 hours) was 30%, the “FGF-2 mRNA” value (FGF-2 mRNA; AIT-082 100 mM) was “++” and the “FGF-2 mRNA” value (FGF-2 mRNA; AIT-082 + NGF (40 ng/ml)) was “+”.
